The subject of data set [1] is recreationally active participants. Description: Serial subtraction test (SST) of cognitive function. In kind it is in vivo, human. The note with it: 30 minutes after supplementation; for SST score (average time per correct calculation): 200 mg oral, crossover, 20 participants. The source says: Following supplementation, participants performed all non-fatiguing tests first.

Data set [2] shares this test system. Description: Vertical jump test, peak power (Tendo Unit). The class given is in vivo, human. As to conditions: 30 minutes after supplementation. As for the experimental part:
Participants were scored by the total number of successful catches. Following the non-fatiguing tests, the participants performed a standardized warm-up in which they walked on a treadmill for 5 minutes at 3 miles per hour. Following the warm-up, participants performed the fatiguing tests which included vertical jump, broad jump, 40 yard dash, and the pro-agility shuttle. […] Participants then performed three attempts for the standing broad jump. Maximum broad jump distance was recorded. Lastly, participants performed one 40 yard dash and one pro-agility shuttle (5-10-5 drill) on an indoor, wooden gymnasium floor. Times was measured by hand and recorded.
(§1) Upon arrival to the Human Performance Laboratory at Angelo State University on each of the 4 testing sessions, participants were provided with a sample of the supplement. Participants were assigned to consume a placebo, 200 mg of caffeine, 200 mg of α-GPC, and 400 mg of α-GPC in a randomized, double-blind, placebo controlled, cross-over manner. After consuming the supplement, participants waited 30 minutes before completing the testing protocol. All participants were advised that they should not have had anything to eat or drink, except for water, in the previous 8 hours. Additionally, participants were asked to refrain from consuming any food or beverages that contain caffeine or other stimulants for at least 24 hours prior to completing the testing sessions.
(§2) Twenty participants (10 males, 10 females; 22.0±3.4 years of age; height 171.9±7.4 cm; weight 56.8±8.6 kg) consumed 200 mg of αGPC (αGPC-L, Alpha-Size®, Chemi Nutra, Austin, Tex. USA), 400 mg of Alpha-GPC (αGPC-H), 200 mg of caffeine (CA), and a placebo (PL) in a randomized, double-blind, placebo-controlled, crossover design. Participants performed the following measurements 30 minutes after supplementation: visual analog scales (VAS) for six different moods, a serial subtraction test (SST), and tests for reaction time, hand-eye coordination, power, speed and agility.

For data set [3] the test system is unchanged. Nature of the data set: Visual analog scale (VAS) for jitteriness. The note with it: 200 mg caffeine; compared to αGPC-H (400 mg), but not αGPC-L or PL; 30 minutes after supplementation. How it is done:
as §1, §2

Data set [4] deals with healthy, college-aged males. Nature of the data set: Isometric mid-thigh pull (IMTP) peak force. The class given is in vivo, human. As for the experimental part: (§3) The Institutional Review Board at the University of Louisiana at Lafayette reviewed the present investigation for ethics. The study was a double-blind, placebo-controlled crossover with a 1-week washout period that included 13 healthy, college-aged males (Means±SD; Age: 21.9±2.2 years, Height: 180.3±7.7 cm; Weight: 87.6±15.6 kg, VO2 max: 40.08±7.23 ml O2*kg^−1; body fat: 17.5±4.6%). Subjects reported to the lab and give informed consent, which included consent to publish, prior to baseline assessments, which included height and weight, an assessment of maximum aerobic capacity via a COSMED CPET system (COSMED, Rome ITL) with integrated electronically braked cycle ergometer as outlined in previous studies incorporated herein by reference (5) and body fat percentage via air displacement plethysmography (Bod Pod Gold Standard System, COSMED Rome, ITL). The following week trial one (random order: either placebo or 600 mg of αGPC) began. For the trials baseline performance testing was done and they were given an initial dose (placebo or α-GPC) while in the lab, 1 h later the performance testing (isometric mid-thigh pull, upper body isometric test) was repeated. The subjects were then given 6 days of additional pre-packaged supplement to take (morning and evening). The subjects reported back on day 6 of this period to repeat performance testing after the final dose of supplement. After a 1-week washout period, the subjects repeated the trial with the other treatment (see FIG. 4).
The treatments consisted of 600 mg daily of α-GPC (Alphasize®, ChemiNutra, Austin Tex.) or a placebo. Both treatments were administered in the same capsules (gel caps) and were the same color (white). The α-GPC capsules were supplied with a certificate of analysis from a third party lab confirming the amount of active ingredient. The placebo capsule consisted of microcrystalline cellulose and magnesium stearate (Nature's Supplements, Carlsbad, Calif. USA). Both the participant and researcher were unaware of the identity of either treatment until the end of the study. […]
The isometric mid-thigh pull test (IMTP) is a well validated strength measure (Beckman, G, et al. “Relationship of isometric mid-thigh pull variables to weightlifting performance.” J. Sports Med. Phys Fitness 2010; 35:573-81). […] The height of the bar was adjusted so that the participant was in a position where the torso was upright (assessed via a contractors box level), the knees achieved between 120-130° of flexion (measured via a goniometer) and the arms were straight while holding the bar. […] The peak force was assessed at a sampling rate of 2000 Hz using an AMT1 Force Plate. […]
(§4) Reliability was assessed for the isometric tests via Intra Class Correlation Coefficients (ICC). […]

Data set [5] concerns healthy, college-aged males. Nature of the data set: Upper body isometric test (UBIST) peak force. The class given is in vivo, human. As to conditions: 600 mg daily. As for the experimental part:
as §3, with “4). […]” for “4).”
The participants were positioned on three elevated platforms with the chest directly suspended over a load cell anchored into the concrete floor of the lab (iLoad Pro, Loadstar Sensors, Fremont Calif.). […] The participants were placed in a push-up style position, with the hands at 150% of biacromial width, and the elbows at 90° of extension (measured via a goniometer). […] The load cell was set to capture data at maximum rate (150 Hz) and the data was exported and analyzed in JMP 11.0 (SAS Institute Inc, Ca1y NC). […]
as §4

Where only a bound is given, the exact number is not on record here.

For `Cn1c(=O)c2c(ncn2C)n(C)c1=O` [CA, caffeine], in data set [1], the “SST score (average time per correct calculation)” value is 7.32 ± 5.67 s. Besides, in data set [2] (200 mg oral), the “Vertical Jump Peak Power” value is listed as 1,920.4±689.6 W and the “Vertical Jump Peak Power higher in comparison to PL” value worked out at 2.0%. Further, the “scores on the VAS for jitteriness” value in data set [3] is recorded as “significantly higher”.

On to α-Glycerophosphocholine [αGPC], for which the “magnitude based inference: likely beneficial for increasing lower body isometric force production” value in data set [4] (600 mg daily, 6 days) came out at 86.5%. Besides, the “IMTP effect size (ES, Cohen's d), treatment by time” value in data set [4] (600 mg daily, day 6, vs placebo) is on record as 0.961. Also, the “IMTP performance, acute treatment effect (repeated measures Anova)” value in data set [4] (1 h after the initial dose, vs placebo) was “did not reveal any main effects”. Besides, in data set [4] (6 days of supplementation, 600 mg daily), the “increase in lower body isometric strength” value was greater than 3%. Further, the “SST score (average time per correct calculation)” value in data set [1] is 6.19 ± 2.21 s. Also, the “SST scores faster compared to CA” value in data set [1] (200 mg αGPC (αGPC-L) vs 200 mg caffeine) was determined as 18.1%. Also, the “SST scores faster compared to PL” value in data set [1] (200 mg αGPC (αGPC-L) vs placebo) turned out to be 10.5%. The figures for the “Vertical Jump Peak Power” value in data set [2] (200 mg oral) and in data set [2] (400 mg oral (αGPC-H)) were 2,041.3±547.2 W and 2,023.1±942.8 W, respectively. In addition, the “Vertical Jump Peak Power higher in comparison to PL” value in data set [2] (200 mg oral) worked out at 8.5%; in data set [2] (400 mg oral (αGPC-H)), 7.5%. For the same compound, the “magnitude based inference: likely beneficial for increasing upper body isometric force” value in data set [5] (6 days) turned out to be 68.3%. The “UBIST force production, change from baseline” value in data set [5] (baseline to day 6) is 50.9±167.2 N. The “UBIST effect size (ES, Cohen's d), treatment by time” value in data set [5] (day 6, vs placebo) is recorded as 0.714.

Source of the values: patent US20160206637A1, “Effects of Alpha-Glycerophosphocholine Versus Caffeine in Measures of Cognitive, Psychological and Physiological Functions” (priority 2015, published 2016).
